Measured values from the SangsterLogP compilation.

First: COC(=O)CCCCCc1ccc2c(c1O)C(=O)c1c(O)cccc1C2
Second: COC(=O)CCCCc1ccc2c(c1O)C(=O)c1c(O)cccc1C2
The logP of the first is higher: 5.34 for the first, 4.97 for the second.

Compared with `CC(C(=O)O)c1ccc2c(c1O)C(=O)c1c(O)cccc1C2` (stereo not drawn), `CC(C(=O)O)C(C)c1ccc2c(c1O)C(=O)c1c(O)cccc1C2` (stereo not drawn) is higher in logP: 3.4 for the first, 3.9 for the second.

Compared with `O=C1c2c(O)cccc2Cc2ccc(C(CCc3ccccc3)C(=O)O)c(O)c21` (stereo not drawn), `O=C1c2c(O)cccc2Cc2ccc(C(Cc3ccccc3)C(=O)O)c(O)c21` (stereo not drawn) is lower in logP: 4.33 for the first, 4.11 for the second.

`COC(=O)CCc1ccc2c(c1O)C(=O)c1c(O)cccc1C2` and `COC(=O)CCCc1ccc2c(c1O)C(=O)c1c(O)cccc1C2` are within 0.2 log units of each other in logP: 4.55 for the first, 4.63 for the second.

Going from `COC(=O)C(C)c1ccc2c(c1O)C(=O)c1c(O)cccc1C2` (stereo not drawn) to `COC(=O)C(C)C(C)c1ccc2c(c1O)C(=O)c1c(O)cccc1C2` (stereo not drawn), the logP rises from 4.16 to 4.77.

Going from `COC(=O)C(CCc1ccccc1)c1ccc2c(c1O)C(=O)c1c(O)cccc1C2` (stereo not drawn) to `COC(=O)C(Cc1ccccc1)c1ccc2c(c1O)C(=O)c1c(O)cccc1C2` (stereo not drawn), the logP falls from 5.17 to 4.86.

First: O=C(O)CCCCc1ccc2c(c1O)C(=O)c1c(O)cccc1C2
Second: O=C(O)CCCCCc1ccc2c(c1O)C(=O)c1c(O)cccc1C2
The logP of the first is lower: 4.22 for the first, 4.6 for the second.

`O=C(O)CCCc1ccc2c(c1O)C(=O)c1c(O)cccc1C2` and `O=C(O)CCc1ccc2c(c1O)C(=O)c1c(O)cccc1C2` are within 0.2 log units of each other in logP: 3.91 for the first, 3.78 for the second.

Compared with `COC(=O)Cc1ccc2c(c1O)C(=O)c1c(O)cccc1C2`, `COC(=O)c1ccc(C(=O)c2ccc3c(c2O)C(=O)c2c(O)cccc2C3)cc1` is higher in logP: 3.93 for the first, 5.22 for the second.
